Test results: ChEMBL document CHEMBL1201862, “PubChem BioAssay data set” (2004)
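48-hour exposure; five concentrations; linearly interpolated endpoints. At the GI50, growth is halved.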 Calls of active or inactive are those of the source. Cut-off read from the data, not from the text of the source: active = GI50 up to about 1.1 µM and inactive = higher. Numbered stars: 1 amine (or outer) side, 2 acyl side, 3 side chain; on linkers, the order of the positions; unused ones are H or OH. Bridge positions count the residues as written; N and C are the ends. Square brackets hold non-standard residues; d marks the D form. Peptide text beside a SMILES is read from it. X58 = COc1c(N[*:1])cccc1C(=O)O[C@H](C(=O)[C@H](C)C(=O)[*:2])C(C)C; X57 = CC(C)C[C@H](C(=O)[*:2])C(C)C(=O)C1CCCN1[*:1]; NMeY = CN[C@@H](Cc1ccc(O)cc1)C(=O)O; Lac = C[C@H](O)C(=O)O

What was measured:
Test in all cases: NCI tumour cell line growth inhibition, 48 h
OVCAR-8 = test system: OVCAR-8
NCI-H23 = test system: NCI-H23
Hs-578T = test system: Hs-578T
OVCAR-3 = test system: OVCAR-3
SK-MEL-5 = test system: SK-MEL-5
SNB-75 = test system: SNB-75
UACC-257 = test system: UACC-257
UACC-62 = test system: UACC-62
U-251 = test system: U-251
UO-31 = test system: UO-31
BT-549 = test system: BT-549
COLO 205 = test system: COLO 205
NCI-H522 = test system: NCI-H522
Malme-3M = test system: Malme-3M
MDA-N = test system: MDA-N
HCT-15 = test system: HCT-15
MOLT-4 = test system: MOLT-4
A549 = test system: A549
HOP-92 = test system: HOP-92
NCI-H460 = test system: NCI-H460

Row | SMILES | GI50 (OVCAR-8) | GI50 (NCI-H23) | GI50 (Hs-578T) | GI50 (OVCAR-3) | GI50 (SK-MEL-5) | GI50 (SNB-75) | GI50 (UACC-257) | GI50 (UACC-62) | GI50 (U-251) | GI50 (UO-31) | GI50 (BT-549) | GI50 (COLO 205) | GI50 (NCI-H522) | GI50 (Malme-3M) | GI50 (MDA-N) | GI50 (HCT-15) [µM] | GI50 (MOLT-4) | GI50 (A549) | GI50 (HOP-92) | GI50 (NCI-H460)
1 | O=c1[nH]nc(-c2ccccc2)n1/N=C\CC/C=N\n1c(-c2ccccc2)n[nH]c1=O | 30.1 µM (inactive) | 14.3 µM (inactive) | 24.9 µM (inactive) | 20.7 µM (inactive) | 21.6 µM (inactive) | > 69.3 µM (inactive) | > 82.2 µM (inactive) | 17.6 µM (inactive) | 40.6 µM (inactive) | > 67.6 µM (inactive) | 19.2 µM (inactive) | 55 µM (inactive) | > 94.2 µM (inactive) | 25.2 µM (inactive) | 20 µM (inactive) | 21.4 | 20.1 µM (inactive) | > 100 µM (inactive) | 25.5 µM (inactive) | > 47.6 µM (inactive)
2 | COc1ccc(C[C@H]2C(=O)O[C@H](C)[C@H](NC(=O)[C@@H](CC(C)C)C(C)C(=O)C3CCCN3C(=O)[C@H](C)O)C(=O)Nc3cccc(c3OC)C(=O)O[C@@H](C(C)C)C(=O)[C@H](C)C(=O)N[C@@H](CC(C)C)C(=O)N3CCC[C@H]3C(=O)N2C)cc1 (stereo not given in full) (H-[Lac][X57]T[X58]LP[NMeY](Me); ester 3-C) | > 12.5 µM (inactive) | > 12.5 µM (inactive) | > 12.5 µM (inactive) | 7.38 µM (inactive) | > 12.5 µM (inactive) | 2.81 µM (inactive) | > 12.5 µM (inactive) | > 12.5 µM (inactive) | > 12.5 µM (inactive) | > 12.5 µM (inactive) | > 12.5 µM (inactive) | 9.29 µM (inactive) | 9.82 µM (inactive) | > 12.5 µM (inactive) | 10.1 µM (inactive) | > 12.5 | 1.91 µM (inactive) | 6.75 µM (inactive) | > 12.5 µM (inactive) | 9.02 µM (inactive)
